The subject of assay [1] is U-87 MG. The experiment in a line: Antiproliferative activity against human U-87 MG cells harboring wildtype IDH1 assessed as inhibition of cell growth incubated for 24 hrs by CCK8 assay. It counts as functional, cell-based, U-87MG ATCC. Background: Tetrazolium dyes change colour on reduction, which living cells bring about.
Assay [2] relates to U-87MG ATCC. The experiment in a line: Effect on intracellular NADP+ level in human U-87 MG cells harboring wildtype IDH1. It counts as functional, cell-based.
Assay [3] deals with U-87 MG. The experiment in a line: cells. The conditions noted are these: Homo sapiens, 48 h, read-out: Activity.
Assay [4] deals with U-87 MG. Description: cells. The conditions noted are these: Homo sapiens, 48 h, read-out: Activity. The source holds these as a separate data set.
Assay [5] has as its system U-87MG ATCC. It counts as functional, cell-based. Conditions: Homo sapiens, dose 0.5 µM, time 48.0 hrs.
In assay [6] the test system is U-87 MG. It counts as functional, cell-based, U-87MG ATCC. Conditions: Homo sapiens, 48 h.
Assay [7] deals with U-87 MG. It counts as functional, cell-based, U-87MG ATCC. Conditions: Homo sapiens, 48 h. The source holds these as a separate data set.
Assay [8] concerns U-87 MG. It counts as functional, cell-based, U-87MG ATCC. Conditions: Homo sapiens, 72 h.
Assay [9] concerns U-87 MG. The experiment in a line: Synergistic antiproliferative activity against human U-87 MG cells harboring wildtype IDH1 assessed as inhibition of cell growth incubated for 48 hrs in presence of AG-120 by CCK8 assay. It counts as functional, cell-based, U-87MG ATCC.
The test system of assay [10] is U-87 MG. It counts as functional, cell-based, U-87MG ATCC. The conditions noted are these: Homo sapiens, 24 h.
The test system of assay [11] is U-87 MG. It counts as functional, cell-based, U-87MG ATCC. Conditions: Homo sapiens, 48 h. The source holds these as a separate data set.
Assay [12] has as its system U-87 MG. Description: Antiproliferative activity against human U-87 MG cells harboring wildtype IDH1 assessed as inhibition of cell growth incubated for 48 hrs by CCK8 assay. It counts as functional, cell-based, U-87MG ATCC.
For assay [13], the system named is U-87 MG. It counts as functional, organism-based. Conditions: Homo sapiens; U-87MG ATCC; dose 30.0 mg/kg, route ip, time 35.0 day.
Assay [14] has as its system U-87 MG. Description: Synergistic antiproliferative activity against human U-87 MG cells harboring wildtype IDH1 assessed as inhibition of cell growth incubated for 48 hrs in presence of IDH305 by CCK8 assay. It counts as functional, cell-based, U-87MG ATCC.
In assay [15] the test system is U-87 MG. Description: Antiproliferative activity against human U-87 MG cells harboring wildtype IDH1 assessed as inhibition of cell growth incubated for 72 hrs by CCK8 assay. It counts as functional, cell-based, U-87MG ATCC.

The source made the active and inactive calls. The calls are words filed in the database; no cut-off is given here.

By IC50 is commonly meant the point on the concentration scale where inhibition reaches its midpoint.

Turning to `O=C(/C=C/c1cccnc1)NCCCCC1CCN(C(=O)c2ccccc2)CC1` [DAPORINAD], the half-maximal inhibitory concentration (IC50) was 5460 nM in assay [1]; 970 nM in assay [6]; 560 nM in [7]; 410 nM in assay [8]; 2510 nM in assay [9]; 1040 nM in assay [10]. For the same molecule, the IC50 amounted to 450 nM in assay [11], 2550 nM in assay [12], 1690 nM in [14] and 1630 nM in assay [15]. In addition, the result in assay [2] and in assay [5] was inactive. The viability at 1 µM stood at 27.8% in assay [3] and 40.8% in assay [4]. Further, the result in assay [13] was Active.
